Test results reported in US10246429B2, “Vinyl fluoride cyclopropyl fused thiazin-2-amine compounds as beta-secretase inhibitors and methods of use” (AMGEN INC., priority 2015, dated 2019).

Key:
[1] = molecular target: T1, BACE1 (Homo sapiens (Human), UniProt P56817); assay: BACE1 cell assay; type: cell-based
Target sequence in this assay (P56817 46-501, species assumed): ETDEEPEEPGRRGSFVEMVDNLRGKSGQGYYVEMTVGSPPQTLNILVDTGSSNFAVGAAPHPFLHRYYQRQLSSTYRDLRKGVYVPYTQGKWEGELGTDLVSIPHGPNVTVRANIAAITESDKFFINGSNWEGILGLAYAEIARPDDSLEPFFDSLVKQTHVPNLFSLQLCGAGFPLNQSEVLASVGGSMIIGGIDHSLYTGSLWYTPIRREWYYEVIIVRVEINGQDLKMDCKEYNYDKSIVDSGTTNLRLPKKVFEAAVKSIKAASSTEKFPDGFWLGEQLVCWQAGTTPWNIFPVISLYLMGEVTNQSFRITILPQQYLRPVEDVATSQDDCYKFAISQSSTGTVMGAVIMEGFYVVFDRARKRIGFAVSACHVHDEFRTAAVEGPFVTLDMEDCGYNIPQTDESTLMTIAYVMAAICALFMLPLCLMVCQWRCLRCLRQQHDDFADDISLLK

[2] = molecular target: T1, BACE1; assay: In vitro enzymatic BACE1 FRET assay; type: biochemical; settings: read-out: IC50 IP (μM) BACE1 Enzyme
Target sequence in this assay (P56817 46-501): as the sequence (P56817 46-501, species assumed) above
Text: (§1) In Vitro Enzymatic BACE1 and BACE2 FRET (Fluorescence Resonance Energy Transfer) Assays (Enzyme Assay Data in Table 1)

[3] = molecular target: Cathepsin D (CatD) (Homo sapiens (Human), UniProt P07339); assay: CatD assay; type: biochemical; settings: read-out: IC50 IP (μM) CatD
[4] = molecular target: BACE2 (Homo sapiens (Human), UniProt Q9Y5Z0); assay: In vitro enzymatic BACE2 FRET assay; type: biochemical; settings: read-out: IC50 IP (μM) BACE2 Enzyme
Text: as §1

[5] = read-out: IC50 IP (μM) BACE1 Cell

Sequence of Cathepsin D (CatD) (P07339 65-412, species assumed): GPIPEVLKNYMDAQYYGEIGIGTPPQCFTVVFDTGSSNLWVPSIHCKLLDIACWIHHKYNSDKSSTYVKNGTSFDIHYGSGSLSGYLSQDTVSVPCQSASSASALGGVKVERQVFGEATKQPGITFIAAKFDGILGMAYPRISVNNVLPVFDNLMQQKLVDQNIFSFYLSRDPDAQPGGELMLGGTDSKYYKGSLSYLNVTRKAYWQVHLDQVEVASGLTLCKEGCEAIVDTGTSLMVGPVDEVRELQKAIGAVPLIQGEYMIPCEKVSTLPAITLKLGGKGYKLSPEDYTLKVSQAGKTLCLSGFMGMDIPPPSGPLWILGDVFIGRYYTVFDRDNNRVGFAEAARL
Sequence of BACE2 (Q9Y5Z0 63-518): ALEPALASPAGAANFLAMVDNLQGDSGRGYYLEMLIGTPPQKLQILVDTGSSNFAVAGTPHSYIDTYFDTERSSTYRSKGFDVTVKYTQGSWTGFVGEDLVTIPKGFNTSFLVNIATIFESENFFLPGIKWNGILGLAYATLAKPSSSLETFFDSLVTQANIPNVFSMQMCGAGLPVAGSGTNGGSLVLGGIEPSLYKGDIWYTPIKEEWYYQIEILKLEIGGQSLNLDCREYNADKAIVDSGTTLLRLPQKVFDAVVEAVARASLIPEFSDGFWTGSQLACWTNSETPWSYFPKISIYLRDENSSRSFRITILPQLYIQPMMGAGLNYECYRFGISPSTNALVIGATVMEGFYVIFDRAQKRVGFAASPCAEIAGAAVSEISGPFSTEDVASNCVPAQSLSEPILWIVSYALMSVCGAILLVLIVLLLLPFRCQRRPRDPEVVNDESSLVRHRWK

| Compound | IC50 [1] [µM] | IC50 [2] [µM] | IC50 [3] [µM] | IC50 [4] [µM] | IC50 [1, 5] [µM] |
| --- | --- | --- | --- | --- | --- |
| CN(C)C(=O)[C@]12C[C@H]1[C@@](C)(c1cc(/C(F)=C/c3ccc(Cl)cn3)ccc1F)N=C(N)S2 [Example 185, (1S,5S,6S)-3-amino-5-(5-((Z)-2-(5-chloropyridin-2-yl)-1-fluorovinyl)-2-fluorophenyl)-N,N,5-trimethyl-2-thia-4-azabicyclo[4.1.0]hept-3-ene-1-carboxamide] | 0.695 | 0.132 | 172 | 0.0764 |  |
| CN(C)C(=O)[C@]12C[C@H]1[C@@](C)(c1cc(/C(F)=C/c3ccc(C#N)cc3)ccc1F)N=C(N)S2 [Example 186, (1S,5S,6S)-3-amino-5-(5-((Z)-2-(4-cyanophenyl)-1-fluorovinyl)-2-fluorophenyl)-N,N,5-trimethyl-2-thia-4-azabicyclo[4.1.0]hept-3-ene-1-carboxamide] |  | 0.128 | 48.7 | 0.302 | 0.575 |
| C[C@]1(c2cc(/C=C(\F)c3cnc(C#N)cn3)ccc2F)N=C(N)S[C@@]2(C(=O)N3CCCCC3)C[C@H]21 [Example 201, 5-((Z)-2-(3-((1S,5S,6S)-3-amino-5-methyl-1-(piperidine-1-carbonyl)-2-thia-4-azabicyclo[4.1.0]hept-3-en-5-yl)-4-fluorophenyl)-1-fluorovinyl)pyrazine-2-carbonitrile] |  | 0.001 | 16.7 | 0.074 | 0.009 |
| C#Cc1cnc(/C(F)=C/c2ccc(F)c([C@@]3(C)N=C(N)S[C@@]4(C(=O)N(C)C)C[C@H]43)c2)cn1 [Example 205, (1S,5S,6S)-3-amino-5-(5-((Z)-2-(5-ethynylpyrazin-2-yl)-2-fluorovinyl)-2-fluorophenyl)-N,N,5-trimethyl-2-thia-4-azabicyclo[4.1.0]hept-3-ene-1-carboxamide] | 0.569 | 0.002 | 113 | 0.01 |  |
| CN(C)C(=O)[C@]12C[C@H]1[C@@](C)(c1cc(/C=C(\F)I)ccc1F)N=C(N)S2 [Example 206, (1S,5S,6S)-3-amino-5-(2-fluoro-5-((E)-2-fluoro-2-iodovinyl)phenyl)-N,N,5-trimethyl-2-thia-4-azabicyclo[4.1.0]hept-3-ene-1-carboxamide] |  | 0.01 | 12.2 | 0.008 | 0.093 |
| CN(C)C(=O)[C@]12C[C@H]1[C@@](C)(c1cc(/C=C(\F)C#Cc3ccccc3)ccc1F)N=C(N)S2 [Example 207, (1S,5S,6S)-3-amino-5-(2-fluoro-5-((Z)-2-fluoro-4-phenylbut-1-en-3-yn-1-yl)phenyl)-N,N,5-trimethyl-2-thia-4-azabicyclo[4.1.0]hept-3-ene-1-carboxamide] |  | 0.005 | 14.6 | 0.018 | 0.335 |
| CC#C/C(F)=C/c1ccc(F)c([C@@]2(C)N=C(N)S[C@@]3(C(=O)N(C)C)C[C@H]32)c1 [Example 209, (1S,5S,6S)-3-amino-5-(2-fluoro-5-((Z)-2-fluoropent-1-en-3-yn-1-yl)phenyl)-N,N,5-trimethyl-2-thia-4-azabicyclo[4.1.0]hept-3-ene-1-carboxamide] |  | 0.094 | 56 | 0.01 | 0.324 |
| COCCOc1cnc(/C(F)=C/c2ccc(F)c([C@@]3(C)N=C(N)S[C@@]4(C(=O)N(C)C)C[C@H]43)c2)cn1 [Example 210, (1S,5S,6S)-3-amino-5-(2-fluoro-5-((Z)-2-fluoro-2-(5-(2-methoxyethoxy)pyrazin-2-yl)vinyl)phenyl)-N,N,5-trimethyl-2-thia-4-azabicyclo[4.1.0]hept-3-ene-1-carboxamide] | 0.007 | 0.011 | 159 | 0.072 |  |
| CN(C)C(=O)[C@]12C[C@H]1[C@@](C)(c1cc(/C=C(\F)c3cnc(OCC4CC4)cn3)ccc1F)N=C(N)S2 [Example 211, (1S,5S,6S)-3-amino-5-(5-((Z)-2-(5-(cyclopropylmethoxy)pyrazin-2-yl)-2-fluorovinyl)-2-fluorophenyl)-N,N,5-trimethyl-2-thia-4-azabicyclo[4.1.0]hept-3-ene-1-carboxamide] |  | 0.022 | 67.8 | 0.044 | 0.247 |
| CN(C)C(=O)[C@]12C[C@H]1[C@@](C)(c1cc(/C=C(\F)c3cnc(OCC4COC4)cn3)ccc1F)N=C(N)S2 [Example 212, (1S,5S,6S)-3-amino-5-(2-fluoro-5-((Z)-2-fluoro-2-(5-(oxetan-3-ylmethoxy)pyrazin-2-yl)vinyl)phenyl)-N,N,5-trimethyl-2-thia-4-azabicyclo[4.1.0]hept-3-ene-1-carboxamide] |  | 0.076 | 202 | 0.077 | 0.065 |
| CN(C)C(=O)[C@]12C[C@H]1[C@@](C)(c1cc(/C=C(\F)c3cnc(OCC(F)F)cn3)ccc1F)N=C(N)S2 [Example 213, (1S,5S,6S)-3-amino-5-(5-((Z)-2-(5-(2,2-difluoroethoxy)pyrazin-2-yl)-2-fluorovinyl)-2-fluorophenyl)-N,N,5-trimethyl-2-thia-4-azabicyclo[4.1.0]hept-3-ene-1-carboxamide] |  | 0.021 | 103 | 0.065 | 0.039 |
| COC[C@H](C)Oc1cnc(/C(F)=C/c2ccc(F)c([C@@]3(C)N=C(N)S[C@@]4(C(=O)N(C)C)C[C@H]43)c2)cn1 [Example 214, (1S,5S,6S)-3-amino-5-(2-fluoro-5-((Z)-2-fluoro-2-(5-(((S)-1-methoxypropan-2-yl)oxy)pyrazin-2-yl)vinyl)phenyl)-N,N,5-trimethyl-2-thia-4-azabicyclo[4.1.0]hept-3-ene-1-carboxamide] |  | 0.014 | 134 | 0.072 | 0.024 |
| CN(C)C(=O)[C@]12C[C@H]1[C@@](C)(c1cc(/C=C(\F)c3cnc(OCC4CC4(F)F)cn3)ccc1F)N=C(N)S2 (stereo partly drawn) [Example 215, (1S,5S,6S)-3-amino-5-(5-((Z)-2-(5-((2,2-difluorocyclopropyl)methoxy)pyrazin-2-yl)-2-fluorovinyl)-2-fluorophenyl)-N,N,5-trimethyl-2-thia-4-azabicyclo[4.1.0]hept-3-ene-1-carboxamide] |  | 0.037 | 121 | 0.051 | 0.262 |
| Cc1nnc(COc2cnc(/C(F)=C/c3ccc(F)c([C@@]4(C)N=C(N)S[C@@]5(C(=O)N(C)C)C[C@H]54)c3)cn2)o1 [Example 216, (1S,5S,6S)-3-amino-5-(2-fluoro-5-((Z)-2-fluoro-2-(5-((5-methyl-1,3,4-oxadiazol-2-yl)methoxy)pyrazin-2-yl)vinyl)phenyl)-N,N,5-trimethyl-2-thia-4-azabicyclo[4.1.0]hept-3-ene-1-carboxamide] |  | 0.007 | 391 | 0.072 | 0.005 |
| Cc1noc(COc2cnc(/C(F)=C/c3ccc(F)c([C@@]4(C)N=C(N)S[C@@]5(C(=O)N(C)C)C[C@H]54)c3)cn2)n1 [Example 217, (1S,5S,6S)-3-amino-5-(2-fluoro-5-((Z)-2-fluoro-2-(5-((3-methyl-1,2,4-oxadiazol-5-yl)methoxy)pyrazin-2-yl)vinyl)phenyl)-N,N,5-trimethyl-2-thia-4-azabicyclo[4.1.0]hept-3-ene-1-carboxamide] |  | 0.002 | 438 | 0.07 | 0.002 |
| Cc1cc(COc2cnc(/C(F)=C/c3ccc(F)c([C@@]4(C)N=C(N)S[C@@]5(C(=O)N(C)C)C[C@H]54)c3)cn2)on1 [Example 218, (1S,5S,6S)-3-amino-5-(2-fluoro-5-((Z)-2-fluoro-2-(5-((3-methylisoxazol-5-yl)methoxy)pyrazin-2-yl)vinyl)phenyl)-N,N,5-trimethyl-2-thia-4-azabicyclo[4.1.0]hept-3-ene-1-carboxamide] | 0.04 | 0.01 | 156 | 0.033 |  |
| CN(C)C(=O)[C@]12C[C@H]1[C@@](C)(c1cc(/C=C(\F)c3ncc(C#N)s3)ccc1F)N=C(N)S2 [Example 219, (1S,5S,6S)-3-amino-5-(5-((Z)-2-(5-cyanothiazol-2-yl)-2-fluorovinyl)-2-fluorophenyl)-N,N,5-trimethyl-2-thia-4-azabicyclo[4.1.0]hept-3-ene-1-carboxamide] |  | 0.004 | 110 | 0.007 | 0.005 |
| CN(C)C(=O)[C@]12C[C@H]1[C@@](C)(c1cc(/C=C(\F)c3ccc(C#N)s3)ccc1F)N=C(N)S2 [Example 220, (1S,5S,6S)-3-amino-5-(5-((Z)-2-(5-cyanothiophen-2-yl)-2-fluorovinyl)-2-fluorophenyl)-N,N,5-trimethyl-2-thia-4-azabicyclo[4.1.0]hept-3-ene-1-carboxamide] |  | 0.011 | 26.4 | 0.002 | 0.022 |
| CN(C)C(=O)[C@]12C[C@H]1[C@@](C)(c1cc(/C(F)=C/c3ccc(C#N)cc3)ccc1F)N=C(N)S2 [Example 221, (1S,5S,6S)-3-amino-5-(5-((Z)-2-(4-cyanophenyl)-1-fluorovinyl)-2-fluorophenyl)-N,N,5-trimethyl-2-thia-4-azabicyclo[4.1.0]hept-3-ene-1-carboxamide] | 0.575 | 0.128 | 48.6 | 0.302 |  |
| CNC(=O)[C@]12C[C@H]1[C@@](C)(c1cc(/C=C(\F)c3ccc(C(F)(F)F)cn3)ccc1F)N=C(N)S2 [Example 224, (1S,5S,6S)-3-amino-5-(2-fluoro-5-((Z)-2-fluoro-2-(5-(trifluoromethyl)pyridin-2-yl)vinyl)phenyl)-N,5-dimethyl-2-thia-4-azabicyclo[4.1.0]hept-3-ene-1-carboxamide] | 0.031 | 0.015 | 396 | 0.564 |  |
